ChEMBL document CHEMBL3046427, “Wound healing phytoconstituents from seed kernel of Entada pursaetha DC. and their molecular docking studies with glycogen synthase kinase 3-” (2012)
Activity calls are given as the source filed them. The calls are words filed in the database; no cut-off is given here.

Legend:
Rattus norvegicus [1] = assay: Wound healing activity in po dosed Rattus norvegicus Swiss albino Wistar (rat) incision wound model assessed as skin breaking strength measured on day 10 post-wounding by tensiometric analysis (reference value: 400 +/- 28.87 g); format: functional
Rattus norvegicus [2] = assay: Wound healing activity in Rattus norvegicus Swiss albino Wistar (rat) excision wound model assessed as time of epithelialization at 0.2% w/v administered topically (reference value: 24 +/- 0.26 days); format: functional
Rattus norvegicus [3] = assay: Wound healing activity in Rattus norvegicus Swiss albino Wistar (rat) excision wound model assessed as wound closure at 0.2% w/v administered topically measured on day 4 post-wounding (reference value: 25.59 +/- 1.79%); format: functional
Rattus norvegicus [4] = assay: Wound healing activity in Rattus norvegicus Swiss albino Wistar (rat) excision wound model assessed as wound closure at 0.2% w/v administered topically measured on day 16 post-wounding (reference value: 83.31 +/- 1.06%); format: functional
Rattus norvegicus [5] = assay: Wound healing activity in Rattus norvegicus Swiss albino Wistar (rat) excision wound model assessed as wound closure at 0.2% w/v administered topically measured on day 8 post-wounding (reference value: 48.75 +/- 1.34%); format: functional
Rattus norvegicus [6] = assay: Wound healing activity in Rattus norvegicus Swiss albino Wistar (rat) excision wound model assessed as wound closure at 0.2% w/v administered topically measured on day 12 post-wounding (reference value: 69.04 +/- 1.05%); format: functional
Rattus norvegicus [7] = assay: Wound healing activity in Rattus norvegicus Swiss albino Wistar (rat) incision wound model assessed as skin breaking strength at 15 mg/ml, po measured on day 10 post-wounding by tensiometric analysis (reference value: 400 +/- 28.87 g); format: functional
Rattus norvegicus [8] = assay: Wound healing activity in Rattus norvegicus Swiss albino Wistar (rat) dead space wound model assessed as hydroxyproline content per 100 g tissue at 15 mg/ml, po measured on day 10 post-wounding by Neuman-Logan method (reference value: 1369.67 +/- 10.54 ug); format: functional
Rattus norvegicus [9] = assay: Wound healing activity in Rattus norvegicus Swiss albino Wistar (rat) dead space wound model assessed as tissue breaking strength at 15 mg/ml, po measured on day 10 post-wounding (reference value: 260.83 +/- 14.05 g); format: functional
Rattus norvegicus [10] = assay: Wound healing activity in Rattus norvegicus Swiss albino Wistar (rat) dead space wound model assessed as granular tissue weight per 100 g tissue at 15 mg/ml, po measured on day 10 post-wounding (reference value: 31 +/- 0.93 mg); format: functional
Rattus norvegicus [11] = assay: Wound healing activity in Rattus norvegicus Swiss albino Wistar (rat) incision wound model assessed as skin breaking strength at 10 mg/ml, po measured on day 10 by tensiometric analysis (reference value: 400 +/- 28.87 g); format: functional
Rattus norvegicus [12] = assay: Wound healing activity in Rattus norvegicus Swiss albino Wistar (rat) dead space wound model assessed as decrease in macrophages at 10 mg/ml, po measured on day 10 post-wounding by histological analysis relative to control; format: functional, organism-based
Rattus norvegicus [13] = assay: Wound healing activity in Rattus norvegicus Swiss albino Wistar (rat) dead space wound model assessed as increase in collagenation of granulation tissue at 10 mg/ml, po measured on day 10 post-wounding by histological analysis relative to control; format: functional, organism-based
Rattus norvegicus [14] = assay: Wound healing activity in Rattus norvegicus Swiss albino Wistar (rat) dead space wound model assessed as hydroxyproline content per 100 g tissue at 10 mg/ml, po measured on day 10 post-wounding by Neuman-Logan method (reference value: 1369.67 +/- 10.54 ug); format: functional
Rattus norvegicus [15] = assay: Wound healing activity in Rattus norvegicus Swiss albino Wistar (rat) dead space wound model assessed as tissue breaking strength at 10 mg/ml, po measured on day 10 post-wounding (reference value: 260.83 +/- 14.05 g); format: functional
Rattus norvegicus [16] = assay: Wound healing activity in Rattus norvegicus Swiss albino Wistar (rat) dead space wound model assessed as granular tissue weight per 100 g tissue at 10 mg/ml, po measured on day 10 post-wounding (reference value: 31 +/- 0.93 mg); format: functional
Rattus norvegicus [17] = assay: Wound healing activity in Rattus norvegicus Swiss albino Wistar (rat) dead space wound model assessed as granular tissue weight per 100 g tissue at 5 mg/ml, po measured on day 10 post-wounding (reference value: 31 +/- 0.93 mg); format: functional
Rattus norvegicus [18] = assay: Wound healing activity in Rattus norvegicus Swiss albino Wistar (rat) incision wound model assessed as skin breaking strength at 5 mg/ml, po measured on day 10 post-wounding by tensiometric analysis (reference value: 400 +/- 28.87 g); format: functional
Rattus norvegicus [19] = assay: Wound healing activity in Rattus norvegicus Swiss albino Wistar (rat) dead space wound model assessed as hydroxyproline content per 100 g tissue at 5 mg/ml, po measured on day 10 post-wounding by Neuman-Logan method (reference value: 1369.67 +/- 10.54 ug); format: functional
Rattus norvegicus [20] = assay: Wound healing activity in Rattus norvegicus Swiss albino Wistar (rat) dead space wound model assessed as tissue breaking strength at 5 mg/ml, po measured on day 10 post-wounding (reference value: 260.83 +/- 14.05 g); format: functional

SMILES	Activity (Rattus norvegicus [1]) [g]	Time (Rattus norvegicus [2]) [days]	Activity (Rattus norvegicus [3]) [%]	Activity (Rattus norvegicus [4]) [%]	Activity (Rattus norvegicus [5]) [%]	Activity (Rattus norvegicus [6]) [%]	Activity (Rattus norvegicus [7]) [g]	Activity (Rattus norvegicus [8]) [µg]	Activity (Rattus norvegicus [9]) [g]	Activity (Rattus norvegicus [10]) [mg]	Activity (Rattus norvegicus [11]) [g]	Activity (Rattus norvegicus [12])	Activity (Rattus norvegicus [13])	Activity (Rattus norvegicus [14]) [µg]	Activity (Rattus norvegicus [15]) [g]	Activity (Rattus norvegicus [16]) [mg]	Activity (Rattus norvegicus [17]) [mg]	Activity (Rattus norvegicus [18]) [g]	Activity (Rattus norvegicus [19]) [µg]	Activity (Rattus norvegicus [20]) [g]
NC(=O)N/N=C/c1ccc([N+](=O)[O-])o1 [NITROFURAZONE]	683.33	16.33	41.46	97.64	80.7	91.32														
O=C(O)Cc1cc(O)ccc1O[C@@H]1O[C@H](CO)[C@@H](O)[C@H](O)[C@H]1O [PHASEOLOIDIN]		21.16	27.08	88.5	52.15	70.08	490.33	1690.33	450.17	43.92										
CC1(C)CC[C@]2(C(=O)O)[C@H](O)[C@H](O)[C@]3(C)C(=CC[C@@H]4[C@@]5(C)CC[C@H](O)C(C)(C)[C@@H]5CC[C@]43C)[C@@H]2C1 [ENTAGENIC ACID]		18.08	33.39	96.08	65.21	76.38					655.67	Active	Active	2001.33	549.83	53.11				
CS/C=C/C(=O)NCCO [ENTADAMIDE]		19.92	28.28	92.22	57.32	71.27											50.75	533.5	1891.17	463.33
